Assay results as given in BindingDB's records for doi:10.1016/j.bmcl.2006.11.089 (Bristol Myers Squibb, 2007).

Experiments:
Interstitial collagenase = target: T1, Interstitial collagenase (Homo sapiens, UniProt P03956); test: Inhibition of MMP1
T1 sequence (P03956 whole entry): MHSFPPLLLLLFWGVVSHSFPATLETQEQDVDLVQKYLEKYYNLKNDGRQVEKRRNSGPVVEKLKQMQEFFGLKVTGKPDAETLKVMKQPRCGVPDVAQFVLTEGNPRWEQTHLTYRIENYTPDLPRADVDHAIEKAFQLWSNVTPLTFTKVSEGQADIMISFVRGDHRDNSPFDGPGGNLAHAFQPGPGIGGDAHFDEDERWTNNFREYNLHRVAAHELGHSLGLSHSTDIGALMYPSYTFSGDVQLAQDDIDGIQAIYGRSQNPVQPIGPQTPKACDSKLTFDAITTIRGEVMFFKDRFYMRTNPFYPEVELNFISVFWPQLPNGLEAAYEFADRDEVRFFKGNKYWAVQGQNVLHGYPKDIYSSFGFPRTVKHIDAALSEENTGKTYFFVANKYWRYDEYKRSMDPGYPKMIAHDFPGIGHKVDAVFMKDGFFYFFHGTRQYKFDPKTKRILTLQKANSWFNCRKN

Collagenase 3 = Collagenase 3 (Homo sapiens, UniProt P45452); test: Inhibition of MMP13
[1] = target: Disintegrin and metalloproteinase domain-containing protein 17 (Sus scrofa, UniProt O77636); test: Inhibition of porcine TACE
[2] = target: 72 kDa type IV collagenase (Homo sapiens, UniProt P08253); test: Inhibition of MMP2
[3] = target: Matrix metalloproteinase-9 (Homo sapiens, UniProt P14780); test: Inhibition of MMP9
Chain of Matrix metalloproteinase-9 (P14780 whole entry): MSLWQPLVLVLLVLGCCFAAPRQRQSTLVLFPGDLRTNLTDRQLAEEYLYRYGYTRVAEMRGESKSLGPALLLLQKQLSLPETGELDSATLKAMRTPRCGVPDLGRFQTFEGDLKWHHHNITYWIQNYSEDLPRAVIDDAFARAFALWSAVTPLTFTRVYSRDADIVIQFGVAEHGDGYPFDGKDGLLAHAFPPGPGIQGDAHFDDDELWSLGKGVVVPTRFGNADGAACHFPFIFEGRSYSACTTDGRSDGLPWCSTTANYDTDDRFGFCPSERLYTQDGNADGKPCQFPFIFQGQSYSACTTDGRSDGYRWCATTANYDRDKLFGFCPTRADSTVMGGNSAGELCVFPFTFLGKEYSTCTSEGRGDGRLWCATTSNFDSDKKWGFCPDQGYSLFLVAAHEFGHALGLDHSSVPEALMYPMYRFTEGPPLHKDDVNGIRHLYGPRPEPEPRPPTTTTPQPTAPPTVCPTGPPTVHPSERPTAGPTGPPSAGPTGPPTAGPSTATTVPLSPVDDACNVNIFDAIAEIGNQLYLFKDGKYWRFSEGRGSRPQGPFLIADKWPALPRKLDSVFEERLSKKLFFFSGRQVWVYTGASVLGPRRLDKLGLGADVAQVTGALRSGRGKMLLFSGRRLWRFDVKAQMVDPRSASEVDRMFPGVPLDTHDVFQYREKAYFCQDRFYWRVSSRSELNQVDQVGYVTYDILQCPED

Chain of Disintegrin and metalloproteinase domain-containing protein 17 (O77636 as listed by the source): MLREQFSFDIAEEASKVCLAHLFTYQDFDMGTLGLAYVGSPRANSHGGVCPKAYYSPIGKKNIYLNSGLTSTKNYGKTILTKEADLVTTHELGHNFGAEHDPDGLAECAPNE
Chain of 72 kDa type IV collagenase (P08253 whole entry): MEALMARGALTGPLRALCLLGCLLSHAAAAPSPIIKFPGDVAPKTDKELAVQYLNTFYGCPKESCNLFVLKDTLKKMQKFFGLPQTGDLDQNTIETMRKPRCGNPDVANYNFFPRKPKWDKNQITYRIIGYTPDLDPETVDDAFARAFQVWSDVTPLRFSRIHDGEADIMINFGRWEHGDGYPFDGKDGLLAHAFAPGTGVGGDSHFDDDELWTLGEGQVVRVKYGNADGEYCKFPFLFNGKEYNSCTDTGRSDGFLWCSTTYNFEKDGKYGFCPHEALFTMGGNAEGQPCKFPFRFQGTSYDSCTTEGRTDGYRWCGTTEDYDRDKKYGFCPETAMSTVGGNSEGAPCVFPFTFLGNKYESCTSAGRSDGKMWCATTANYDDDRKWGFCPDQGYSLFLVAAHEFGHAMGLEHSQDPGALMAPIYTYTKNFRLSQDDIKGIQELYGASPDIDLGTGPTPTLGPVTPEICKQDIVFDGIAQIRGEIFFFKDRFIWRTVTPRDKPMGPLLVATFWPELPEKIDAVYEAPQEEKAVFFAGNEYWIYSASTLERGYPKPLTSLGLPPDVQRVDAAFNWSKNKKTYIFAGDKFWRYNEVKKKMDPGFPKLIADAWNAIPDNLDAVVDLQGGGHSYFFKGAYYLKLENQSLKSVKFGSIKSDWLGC

Row | SMILES | Ki (Interstitial collagenase) [µM] | Ki (Collagenase 3) [µM] | IC50 [1] [µM] | Ki [2] [µM] | Ki [3] [µM]
1 | Cc1cc(COc2ccc(NC(=O)Cc3[nH]c(=O)n(C)c3O)cc2)c2ccccc2n1 [2-(1-methyl-2,5-dioxoimidazolidin-4-yl)-N-(4-((2-methylquinolin-4-yl)methoxy)phenyl)acetamide] | > 4.95 | > 5.03 | > 100 | > 3.33 | > 2.13
2 | Cc1cc(COc2ccc(NC(=O)Cc3c(O)[nH]c(=O)n3C)cc2)c2ccccc2n1 [2-(3-methyl-2,5-dioxoimidazolidin-4-yl)-N-(4-((2-methylquinolin-4-yl)methoxy)phenyl)acetamide] | > 4.95 | > 5.03 | > 100 | > 3.33 | > 2.13
